# Reference: patent publication US12295997B2, “Prostate neoantigens and their uses” (Janssen Biotech, Inc., priority 2020, dated 2025)
# System: CD8+ and CD4+ T cells (autologous CD3+ Pan-T cells isolated from human normal PBMCs)
# Assay: Endogenous autologous normal donor restimulation assay (Ad5-transduced CD1c+ dendritic cells, TNFα/IFNγ flow cytometry)
# Type: cell-based
# Details: Table 27, endogenous expression, peptide pool restimulation, highest across sixteen normal donors
# Experimental: CD1c+ Dendritic Cells (DC) isolated from human normal PBMCs were thawed using media (IMDM (Gibco) supplemented with glutamine, HEPES, 5% human serum (Sigma), and 1×Pen-Strep). DC cells were resuspended in media supplemented with IL-4 (Peprotech, 80 ng/mL) and GM-CSF (Gibco, 80 ng/mL), plated in 6 well microplates, and rested overnight at 37° C. (5% CO2). The following day, DC cells were counted and plated in a 96 well round bottom microplate at a concentration of 30,000 viable cells per well. Ad5 vectors (Vector Biolabs) were dilute in media to an MOI (Multiplicity Of Infection) of 5000 based on Plaque Forming Units. Ad5 vectors for the CEF pool and a “null” were used as controls. DCs were transduced with Ad5 vectors overnight at 37° C. (5% CO2). The following day, the Ad5 vectors were washed off the plate by three sequential centrifugation/aspiration steps using sterile Phosphate Buffered Saline. After the final wash, transduced DCs were resuspended in 100 μL media. Autologous CD3+ Pan-T cells isolated from human normal PBMCs were thawed using media. Pan-T cells were added to the irradiated DCs at 300,000 viable cells per well (100 μL/well). Human IL-15 (Peprotech) was added to all wells at final concentration of 10 ng/mL.
# Plates were incubated at 37° C. (5% CO2) for a total of 12 days. Media was refreshed every 2-3 days with IL-15 (10 ng/mL final concentration) and IL-2 (R&D systems, 10 IU/mL final concentration). On day 11 lyophilized peptides (15-mer overlapping peptides) were solubilized in 100% DMSO and pooled by neoantigen to between 5 mg/mL and 20 mg/mL. Neoantigen peptides pools were added to cells for a final concentration of 2.5 μg/mL to 10 μg/mL. CEF Peptide Pool “Plus” (Cellular Technologies, Ltd.) was utilized as a positive control and DMSO at the same final concentration as the experimental peptides was utilized as a negative control. Protein Inhibitor Cocktail (eBioscience) was added to every well and plate was incubated overnight at 37° C. (5% CO2).
# On day 12, cells were stained for intracellular flow cytometry analysis. The cells were washed with PBS and stained with Live/Dead Fixable Aqua Dead Cell stain (Thermo-Fisher). Following the live/dead stain, cells were blocked using Biotin-Free Fc Receptor Blocker (Accurate Chemical & Scientific Corp). Extracellular cellular flow panel ([…] per well in 50 μL) consisted of CD3 PerCP-Cy5.5 (Biolegend), CD4 BV421 (Biolegend), and CD8 APC-Cy7 (Biolegend). After extracellular staining, cells were fixed using Foxp3/fTranscription Factor Staining Buffer Set (eBioscience) and stained for intracellular proteins (1:50 dilution) using TNFα FITC (R&D Systems) and IFNγ BV785 (Biolegend). Cells were washed and resuspended in stain buffer and analyzed using a BD Celesta flow cytometer.
# Flow cytometry cell staining analysis was completed using FlowJo v10. Cells were gated on live, singlet, CD3+ cells. The CD8+ and CD4+ T cells were analyzed for TNFα/IFNγ expression and the frequency of double positive TNFα/IFNγ CD8+ and the frequency of double positive TNFα/IFNγ CD4+ T cells were recorded. Responses were assessed to be positive when the frequency of double positive TNFα/IFNγ CD8+ or TNFα/IFNγ CD4+ T cells due to stimulation with an experimental peptide pool was increased greater than or equal to 3-fold over the DMSO only negative control for that donor and at least 0.01%.
# For three of the neoantigens, an Ad5 vector was designed to transduce normal Dendritic cells with the neoantigens. This assay assessed the ability of the endogenously expressed and presented neoantigens to activate autologous T cells following overlapping 15-mer peptide pools restimulation using the endogenous autologous normal donor restimulation assay described in Example 1 utilizing TNFα and IFNγ production by CD8^+ and CD4^+ T cells as a readout. […] Sixteen donors were used to assess endogenous immunogenicity.
sequence,measurement,value
YEAGMTLGGKILFFLFLLLPLSPFSLIF (listed as Homo sapiens) [Neoantigen P87],Maximum Fold Change Over Background CD4+ cells,2.41
same,Maximum Fold Change Over Background CD8+ cells,2.47
same,Maximum Frequency of TNFα/IFNγ Double Positive CD4+ T cells,0.079
same,Maximum Frequency of TNFα/IFNγ Double Positive CD8+ T cells,0.39
